Laboratory results reported in patent US20040229268A1, “Method and kit for identifying antibiotic-resistant microorganisms” (priority 2003, published 2004).

Columns and labels:
[1] = test system: mecA gene; Staphylococcus ribosomal nucleic acids; assay: HPA after thermal lysis, base hydrolysis and neutralization (Examples 5-7); type: binding, S. aureus
Description: The cultured S. aureus specimens were lysed by suspending 1 μl loops of bacteria in 150 μl of lysis buffer and then incubating at 105° C. for 15 minutes. Next, 100 μl of 2 N LiOH base solution was added and RNA was hydrolyzed by incubating the mixtures at 60° C. for 15 minutes. Hydrolyzed samples were neutralized by the addition of 100 μl of a neutralizing reagent that included 2 N HCl and 100 mM succinate buffer (pH 5.5 prior to acidification with HCl). Specifically hybridized probe was detected by standard HPA, essentially as described in Example 1.
Specimens (1 μl loops of bacteria) were treated and tested essentially as described in Example 5 with the following differences: incubation for lysis was for 15 minutes and incubation for hybridization was for 45 minutes for samples shown in Tables 7-8, while incubation for lysis was for 10 minutes and incubation for hybridization was for 20 minutes for samples shown in Table 9. All of the base-treated solutions were neutralized by the addition of 250 μl of 0.8 N HCl containing 100 mM succinate.
2′-methoxy analogs of the AE-labeled DNA probes were prepared by standard phosphoramidite synthesis using 2′ methoxy phosphoramidite analogs. Additional linker positions, which are indicated by parentheses in Table 11, for probe 2 were also prepared for testing. Deoxy probes and 2′-methoxy probe analogs were tested essentially as described in Example 5, except as noted below. Probes synthesized using 2′-methoxy nucleotide analogs are particularly identified by the “MeO” designations. Brief summaries of the procedures used to obtain the results are appended to the tables.

[2] = test system: rRNA/rDNA (pan-bacterial probe); mecA target sequence; assay: HPA after base treatment of specimen or synthetic target (Example 3); type: binding, S. aureus
Description: The effect of base treatment on a S. aureus specimen (#102) was evaluated using the pan-bacterial probe reagent. A pelleted sample of the specimen was suspended in 120 μl of lysis buffer and lysed by treatment for 20 minutes in a heat block set at 110° C. A 50 μl aliquot of the lysed specimen was treated with 50 μl of a 0.4 N LiOH solution at 55° C. for 10 minutes, and then neutralized with the addition of 50 μl of 0.4 N HCl and buffered with 50 μl of a 1× hybridization buffer (0.6 M LiCl, 1% lithium lauryl sulfate, 10 mM EDTA, 10 mM EGTA, 50 mM lithium succinate, pH 5.5). The treated sample was hybridized with the AE-labeled pan-bacterial probe by incubating at 55° C. for 1 hour. An HPA assay to detect specific probe hybrids was carried out using standard procedures that will be familiar to those having an ordinary level of skill in the art. A control sample consisted of 50 μl of the lysed specimen and volumes of hydrolysis, neutralization and buffered solutions equivalent to those of the treated sample.
For example, the effect of base treatment with 0.8 N LiOH for 10 minutes at 55° C. was assessed using AE-probe 1. For these treatments, an equal volume of 0.8 N LiOH was added to the sample, and the reaction mixtures were neutralized with the addition of an equivalent volume of 0.8 N HCl prior to buffering and assaying by HPA. 300 μl aliquots of each reaction mixture were read in the luminometer. These procedures employed a single-stranded DNA oligonucleotide having the same sequence that was present in the target bacteria, and that was fully complementary to the hybridization probe undergoing testing, as synthetic target.

[3] = Table 7, lysis 15 minutes, hybridization 45 minutes
[4] = Table 8, lysis 15 minutes, hybridization 45 minutes
[5] = Table 9, lysis 10 minutes, hybridization 20 minutes
[6] = Table 10, neutralize 100 μl 2 N HCl containing 200 mM succinate, hybridize 45 minutes at 60° C.

## GGTATGTGGAAGTTAGATTGGGATCATAGCG (AE label, linker between 13 and 14, chemistry not fully specified; listed as Staphylococcus aureus) [Probe 1]
[1]; Table 6, GP18(Neg), MSSA ATCC #12600
  RLU: 821 RLU
[1]; Table 6, GP1214(Neg), MSSA ATCC #29247
  RLU: 848 RLU
[1]; Table 6, GP1217(Pos), MRSA ATCC #33591
  RLU: 53,322 RLU
[1]; Table 6, GP1218(Pos), MRSA ATCC #43866
  RLU: 36,730 RLU
[1]; [3]
  GP18(Neg) RLU: 757 RLU
  GP1217(Pos) RLU: 25928 RLU
  Probe alone Avg RLU: 3668 RLU
[1]; [4]
  GP18(Neg) RLU: 879 RLU
  GP1217(Pos) RLU: 11485 RLU
  Probe alone Avg RLU: 1123 RLU
[1]; [5]
  GP1217(Pos) RLU: 27256 RLU
  Probe alone Avg RLU: 2476 RLU
[1]; [6]
  GP1214(Neg) RLU: 1844 RLU
  GP1217(Pos) RLU: 37695 RLU
  Probe alone Avg RLU: 2131 RLU
[2]; #148, Control (no base treatment)
  AE-probe 1 Signal (RLU): 34677 RLU
[2]; #148, base treated (0.8 N LiOH, 10 minutes, 55° C.)
  AE-probe 1 Signal (RLU): 42627 RLU
[2]; Synthetic target + #148, Control
  AE-probe 1 Signal (RLU): 53367 RLU
[2]; Synthetic target + #148, base treated
  AE-probe 1 Signal (RLU): 58565 RLU
[2]; Synthetic target, Control (no base treatment)
  AE-probe 1 Signal (RLU): 22195 RLU
[2]; Synthetic target, base treated (0.8 N LiOH, 10 minutes, 55° C.)
  AE-probe 1 Signal (RLU): 21283 RLU
